Results taken from ChEMBL document CHEMBL1159222, “Varacin and three new marine antimicrobial polysulfides from the far-eastern ascidian Polycitor sp” (1995).

Tests used:
Assay type in all cases: functional
Conditions in all cases: read-out: IZ
[1] = system: Candida albicans; assay: Antifungal activity against Candida albicans at 10 ug
[2] = system: Candida albicans; assay: Antifungal activity against Candida albicans at 0.1 ug
[3] = system: Bacillus subtilis; assay: Antibacterial activity against Bacillus subtilis at 0.1 ug
[4] = system: Bacillus subtilis; assay: Antibacterial activity against Bacillus subtilis at 1 ug

How did the zone of inhibition at 10 µg/disc [1] turn out when `COc1cc(CCNC(C)=O)c2c(c1OC)SSS2` [VARACIN A ACETATE] was run?
Its zone of inhibition at 10 µg/disc is 20 mm.

With `COc1cc(CCNC(C)=O)c2c(c1OC)SSSSS2` [VARACIN ACETATE] as the compound, how does the zone of inhibition at 10 µg/disc [1] read?
Its zone of inhibition at 10 µg/disc is 20 mm.

Which zone of inhibition at 10 µg/disc [1] does the source give for `COc1cc(CCNC(C)=O)c2c(c1OC)[S+]([O-])SS2` (configuration not stated) [VARACIN B ACETATE] here?
The zone of inhibition at 10 µg/disc was 20 mm.

How did the zone of inhibition at 10 µg/disc [1] turn out when `COc1cc(CCNC(C)=O)c2c(c1OC)SS[S+]2[O-]` (configuration not stated) [VARACIN C ACETATE] was run?
Its zone of inhibition at 10 µg/disc is 20 mm.

For `COc1cc(CCN)c2c(c1OC)SSSSS2` [VARACIN], which zone of inhibition at 0.1 µg/disc [2] is on record?
Its zone of inhibition at 0.1 µg/disc is 20 mm.

And the zone of inhibition at 0.1 µg/disc [3]?
Its zone of inhibition at 0.1 µg/disc is 20 mm.

And the zone of inhibition at 1 µg/disc [4]?
Its zone of inhibition at 1 µg/disc is 20 mm.
